Data taken from patent US20090042964A1, “AMINO-5-[SUBSTITUTED-4-(DIFLUOROMETHOXY)PHENYL]-5-PHENYLIMIDAZOLONE COMPOUNDS AS BETA-SECRETASE INHIBITORS” (Wyeth, priority 2007, published 2009).
Where two headings read alike, the source gives them in different places.

Experiments:
human BACE1 = human BACE1 (Homo sapiens, UniProt P56817); test: Fluorescent kinetic assay, evaluation of BACE1 binding affinity of test compounds; type: biochemical; details: 10 nM human BACE1, 25 μM substrate WABC-6, pH 4.5, room temperature
Procedure, shortened: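 Kinetic fluorescence assay: enzyme added last to inhibitor and substrate mix, reading started immediately; substrate at 100 μM working dilution (25 μL in 100 μL total). Buffer 66.7 mM Na-acetate pH 4.5 with 0.0667% CHAPS for inhibitor and enzyme dilutions; enzyme stock quantified at 280 nm.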

Chain of human BACE1 (P56817 46-501): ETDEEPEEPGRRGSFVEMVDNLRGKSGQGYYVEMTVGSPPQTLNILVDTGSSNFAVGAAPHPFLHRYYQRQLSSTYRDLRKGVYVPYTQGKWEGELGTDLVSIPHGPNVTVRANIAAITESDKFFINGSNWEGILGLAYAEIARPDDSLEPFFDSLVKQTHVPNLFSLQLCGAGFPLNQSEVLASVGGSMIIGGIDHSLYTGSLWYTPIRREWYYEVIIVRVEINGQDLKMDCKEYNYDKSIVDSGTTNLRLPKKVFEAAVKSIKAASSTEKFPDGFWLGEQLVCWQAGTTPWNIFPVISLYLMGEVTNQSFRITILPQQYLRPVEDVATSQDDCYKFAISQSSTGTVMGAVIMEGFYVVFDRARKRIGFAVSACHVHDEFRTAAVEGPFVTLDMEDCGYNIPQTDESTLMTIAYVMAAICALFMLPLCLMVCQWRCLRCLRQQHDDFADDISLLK

Compound | IC50 (human BACE1; read-out: BACE1 IC50) [µM] | also measured
CCc1cc(C2(c3ccc(F)cc3)N=C(N)N(C)C2=O)ccc1OC(F)F (stereo not drawn) [Example 7, 2-Amino-4-[4-(difluoromethoxy)-3-ethylphenyl]-4-(4-fluorophenyl)-1-methyl-1H-imidazol-5(4H)-one] |  | IC50 (human BACE1; BACE1 IC50 μM): 0.11 to 1 µM
CC(C)C#Cc1cccc([C@@]2(c3ccc(OC(F)F)c(C4CC4)c3)N=C(N)N(C)C2=O)c1 (single isomer, unassigned) [Example 174] | < 0.1 | 
CN1C(=O)[C@](c2ccc(F)c(C#CC3CC3)c2)(c2ccc(OC(F)F)c(CCF)c2)N=C1N (single isomer, unassigned) [Example 93] | < 0.1 | 
CN1C(=O)C(c2ccccc2)(c2ccc(OC(F)F)c(CCO)c2)N=C1N (stereo not drawn) [Example 140, 2-Amino-5-[4-(difluoromethoxy)-3-(2-hydroxyethyl)phenyl]-3-methyl-5-phenyl-3,5-dihydro-4H-imidazol-4-one] | 0.11 to 1 | 
Cc1cc(C2(c3cccc(C#CCCF)c3)N=C(N)N(C)C2=O)ccc1OC(F)F (stereo not drawn) [Example 202, 2-amino-5-[4-(difluoromethoxy)-3-methylphenyl]-5-[3-(4-fluorobut-1-yn-1-yl)phenyl]-3-methyl-3,5-dihydro-4H-imidazol-4-one] | < 0.1 | 
CN1C(=O)C(c2ccc(F)c(OCCC(F)F)c2)(c2ccc(OC(F)F)c(C3CC3)c2)N=C1N (stereo not drawn) [Example 133, 2-Amino-5-[3-cyclopropyl-4-(difluoromethoxy)phenyl]-5-[3-(3,3-difluoropropoxy)-4-fluorophenyl]-3-methyl-3,5-dihydro-4H-imidazol-4-one] | < 0.1 | 
Cc1cc([C@@]2(c3ccc(F)cc3)N=C(N)N(C)C2=O)ccc1OC(F)F [Example 4B, (5R)-2-Amino-4-(4-(difluoromethoxy)-3-methylphenyl)-4-(4-fluorophenyl)-1-methyl-1H-imidazol-5(4H)-one] | 0.11 to 1 | 
COc1ccc(C2(c3ccc(OC(F)F)c(C)c3)N=C(N)N(C)C2=O)cc1C#N (stereo not drawn) [Example 21, 5-{2-Amino-4-[4-(difluoromethoxy)-3-methylphenyl]-1-methyl-5-oxo-4,5-dihydro-1H-imidazol-4-yl}-2-methoxybenzonitrile] |  | IC50 (human BACE1; BACE1 IC50 μM): 0.11 to 1 µM
Cc1cc([C@]2(c3cccc(OCCC(F)F)c3)N=C(N)N(C)C2=O)ccc1OC(F)F [Example 127, (5R)-2-Amino-5-[4-(difluoromethoxy)-3-methylphenyl]-5-[3-(3,3-difluoropropoxy)phenyl]-3-methyl-3,5-dihydro-4H-imidazol-4-one] | < 0.1 | 
COCC#Cc1cccc([C@@]2(c3ccc(OC(F)F)c(C4CC4)c3)N=C(N)N(C)C2=O)c1 (single isomer, unassigned) [Example 181] | < 0.1 | 
COCCC#Cc1cccc(C2(c3ccc(OC(F)F)c(C4CC4)c3)N=C(N)N(C)C2=O)c1 (stereo not drawn) [Example 183, 2-amino-4-(3-cyclopropyl-4-(difluoromethoxy)phenyl)-4-(3-(4-methoxybut-1-ynyl)phenyl)-1-methyl-1H-imidazol-5(4H)-one] | < 0.1 | 
CC(C)CC#Cc1cc(C2(c3ccc(OC(F)F)c(CCF)c3)N=C(N)N(C)C2=O)ccc1F (stereo not drawn) [Example 90, 2-amino-5-[4-(difluoromethoxy)-3-(2-fluoroethyl)phenyl]-5-[4-fluoro-3-(4-methylpent-1-yn-1-yl)phenyl]-3-methyl-3,5-dihydro-4H-imidazol-4-one] | < 0.1 | 
Cc1cc([C@]2(c3ccc(F)c(OCC4CC4)c3)N=C(N)N(C)C2=O)ccc1OC(F)F [Example 106, (5R)-2-Amino-5-[3-(cyclopropylmethoxy)-4-fluorophenyl]-5-[4-(difluoromethoxy)-3-methylphenyl]-3-methyl-3,5-dihydro-4H-imidazol-4-one] | < 0.1 | 
CC(C)C#Cc1cccc(C2(c3ccc(OC(F)F)c(C4CC4)c3)N=C(N)N(C)C2=O)c1 (stereo not drawn) [Example 173, 2-amino-4-(3-cyclopropyl-4-(difluoromethoxy)phenyl)-1-methyl-4-(3-(3-methylbut-1-ynyl)phenyl)-1H-imidazol-5(4H)-one] | < 0.1 | 
CCc1cc([C@]2(c3ccc(F)c(C#CCOC)c3)N=C(N)N(C)C2=O)ccc1OC(F)F [Example 156, (5R)-2-Amino-5-[4-(difluoromethoxy)-3-ethylphenyl]-5-[4-fluoro-3-(3-methoxyprop-1-yn-1-yl)phenyl]-3-methyl-3,5-dihydro-4H-imidazol-4-one] | < 0.1 | 
CN1C(=O)[C@@](c2ccc(F)c(OCC(F)F)c2)(c2ccc(OC(F)F)c(C3CC3)c2)N=C1N [Example 124, (5S)-2-Amino-5-[3-cyclopropyl-4-(difluoromethoxy)phenyl]-5-[3-(2,2-difluoroethoxy)-4-fluorophenyl]-3-methyl-3,5-dihydro-4H-imidazol-4-one] | > 1 | 

Now from value to compound, other results behind:

IC50 (human BACE1; read-out: BACE1 IC50) [µM] | Compound | also measured
< 0.1 | CN1C(=O)C(c2cccc(Br)c2)(c2ccc(OC(F)F)c(C3CC3)c2)N=C1N (stereo not drawn) [Example 164, 2-Amino-5-(3-bromo-phenyl)-5-(3-cyclopropyl-4-difluoromethoxy-phenyl)-3-methyl-3,5-dihydro-imidazol-4-one] | melting point: 85 to 87 °C
< 0.1 | Cc1cc([C@]2(c3ccc(F)c(OCCCF)c3)N=C(N)N(C)C2=O)ccc1OC(F)F [Example 111, (5R)-2-Amino-5-[4-(difluoromethoxy)-3-methylphenyl]-5-[4-fluoro-3-(3-fluoropropoxy)phenyl]-3-methyl-3,5-dihydro-4H-imidazol-4-one] | 
0.11 to 1 | 2-Amino-5-[4-(difluoromethoxy)-3-(fluoromethyl)phenyl]-3-methyl-5-phenyl-3,5-dihydro-4H-imidazol-4-one [Example 14] | 
< 0.1 | C#Cc1cccc(C2(c3ccc(OC(F)F)c(C4CC4)c3)N=C(N)N(C)C2=O)c1 (stereo not drawn) [Example 167, 2-amino-4-(3-cyclopropyl-4-(difluoromethoxy)phenyl)-4-(3-ethynylphenyl)-1-methyl-1H-imidazol-5(4H)-one] | 
> 1 | Cc1cc([C@@]2(c3ccc(F)c(OCC4CC4)c3)N=C(N)N(C)C2=O)ccc1OC(F)F [Example 107, (5S)-2-Amino-5-[3-(cyclopropylmethoxy)-4-fluorophenyl]-5-[4-(difluoromethoxy)-3-methylphenyl]-3-methyl-3,5-dihydro-4H-imidazol-4-one] | 
< 0.1 | Cc1cc(C2(c3ccc(F)c(OCCC(F)F)c3)N=C(N)N(C)C2=O)ccc1OC(F)F (stereo not drawn) [Example 130, 2-Amino-5-[4-(difluoromethoxy)-3-methylphenyl]-5-[3-(3,3-difluoropropoxy)-4-fluorophenyl]-3-methyl-3,5-dihydro-4H-imidazol-4-one] | 
< 0.1 | CCc1cc([C@]2(c3ccc(F)c(OCC(F)F)c3)N=C(N)N(C)C2=O)ccc1OC(F)F [Example 119, (5R)-2-Amino-5-[3-(2,2-difluoroethoxy)-4-fluorophenyl]-5-[4-(difluoromethoxy)-3-ethylphenyl]-3-methyl-3,5-dihydro-4H-imidazol-4-one] | 
< 0.1 | CN1C(=O)C(c2cccc(C#CCCF)c2)(c2ccc(OC(F)F)c(C3CC3)c2)N=C1N (stereo not drawn) [Example 211, 2-amino-5-[3-cyclopropyl-4-(difluoromethoxy)phenyl]-5-[3-(4-fluorobut-1-yn-1-yl)phenyl]-3-methyl-3,5-dihydro-4H-imidazol-4-one] | 
< 0.1 | CCc1cc([C@]2(c3ccc(F)c(C#CC4CC4)c3)N=C(N)N(C)C2=O)ccc1OC(F)F [Example 147, (5R)-2-Amino-5-[3-(cyclopropylethynyl)-4-fluorophenyl]-5-[4-(difluoromethoxy)-3-ethylphenyl]-3-methyl-3,5-dihydro-4H-imidazol-4-one] | 
0.11 to 1 | CN1C(=O)C(c2ccccc2)(c2ccc(OC(F)F)c(CCF)c2)N=C1N (stereo not drawn) [Example 74, 2-amino-5-[4-(difluoromethoxy)-3-(2-fluoroethyl)phenyl]-3-methyl-5-phenyl-3,5-dihydro-4H-imidazol-4-one] | 
> 1 | Cc1cc([C@@]2(c3cccc(C#CCF)c3)N=C(N)N(C)C2=O)ccc1OC(F)F [Example 200, (5R)-2-amino-5-[4-(difluoromethoxy)-3-methylphenyl]-5-[3-(3-fluoroprop-1-yn-1-yl)phenyl]-3-methyl-3,5-dihydro-4H-imidazol-4-one] | 
< 0.1 | CCc1cc(C2(c3ccc(F)c(C#CCF)c3)N=C(N)N(C)C2=O)ccc1OC(F)F (stereo not drawn) [Example 159, 2-Amino-5-[4-(difluoromethoxy)-3-ethylphenyl]-5-[4-fluoro-3-(3-fluoroprop-1-yn-1-yl)phenyl]-3-methyl-3,5-dihydro-4H-imidazol-4-one] | 
< 0.1 | CC#Cc1cccc([C@@]2(c3ccc(OC(F)F)c(C4CC4)c3)N=C(N)N(C)C2=O)c1 (single isomer, unassigned) [Example 169] | 
< 0.1 | COC/C=C/c1cc(C2(c3ccc(OC(F)F)c(C)c3)N=C(N)N(C)C2=O)ccc1F (stereo not drawn) [Example 57, 2-Amino-5-(4-difluoromethoxy-3-methylphenyl)-5-[4-fluoro-3-((E)-3-methoxypropenyl)phenyl]-3-methyl-3,5-dihydro-imidazol-4-one] | 
< 0.1 | CN1C(=O)C(c2cccc(C#CC(C)(C)O)c2)(c2ccc(OC(F)F)c(C3CC3)c2)N=C1N (stereo not drawn) [Example 179, 2-amino-4-(3-cyclopropyl-4-(difluoromethoxy)phenyl)-4-(3-(3-hydroxy-3-methylbut-1-ynyl)phenyl)-1-methyl-1H-imidazol-5(4H)-one] | 
> 1 | CC(C)C#Cc1cccc([C@]2(c3ccc(OC(F)F)c(C4CC4)c3)N=C(N)N(C)C2=O)c1 (single isomer, unassigned) [Example 175] | 
